Assay results as given in patent publication US20060014717A1, “Therapeutic compositions for use in prophylaxis or treatment of diarrheas” (priority 2002, published 2006).

Key:
H. pylori CCUG 17875 [1] = assay: Binding of 35S-labeled Helicobacter species to glycosphingolipids on thin-layer chromatograms; parameters: species or system Helicobacter pylori
Text: (§1) Gastric species examined in the present study included, Helicobacter mustelae ferret isolates from the National Collection of Type Cultures (NCTC) and the Culture Collection of the University of Gothenberg (CCUG), NCTC 12198/CCUG 25175 (equivalent strains from different sources tested), CCUG 23950 and CCUG 23951, Helicobacterfelis CCUG 28539 from a cat, in addition, H. pylori strains CCUG 17874, CCUG 17875 and a clinical isolate 119/95 were used. Enterohepatic helicobacters of animal origin were purchased from the CCUG including, Helicobacter canes CCUG 33835, Helicobacter bilis CCUG 38995, Helicobacter hepaticus CCUG 33637, and Helicobacterfennelliae (CCUG 18820).
(§2) Binding of Helicobacter spp. to glycosphingolipids, both acid and non-acidfractions. Glycosphingolipids were isolated by standard procedures (Karlsson, 1987). The identity of the purified glycosphingolipids was confirmed by mass spectrometry (Samuelsson et al., 1990), proton NMR spectroscopy (Koerner et al., 1983) and degradation studies (Stellner et al., 1973; Yang and Hakomori, 1971).
Mixtures of glycosphingolipids (40 μg/lane) or pure compounds (2 μg/lane) were subsequently separated using thin-layer chromatography (TLC) on glass- or aluminum-backed silica gel 60 HPTLC plates (Merck, Darmstadt, Germany), with chloroform/methanot/water (60:35:8, by volume) as solvent system. […]

H. pylori CCUG 17875 [2] = assay: as above; parameters: species or system Helicobacter pylori; key: + denotes a significant darkening on the autoradiogram when 2 μg (or 40 μg in the case of the last sample) was applied to TLC plates; − denotes no binding; conditions: 2 μg (40 μg for the glycosphingolipid fraction) on TLC plates
Text: as §1, §2
(§3) Mixtures of glycosphingolipids (40 μg/lane) or pure compounds (2 μg/lane) were subsequently separated using thin-layer chromatography (TLC) on glass- or aluminum-backed silica gel 60 HPTLC plates (Merck, Darmstadt, Germany), with chloroform/methanot/water (60:35:8, by volume) as solvent system. Chemical detection was accomplished by anisaldehyde (Waldi, 1962). Helicobacter spp. were subjected to ^35S-labeling (Angstrom et al., 1998) and suspended in PBS (10^8 CFU/ml) with a specific activity of approximately 1 cpm per 100 organisms. Binding of the labeled-bacteria to glycosphingolipids separated by TLC was achieved using a bacterial-overlay technique coupled with autoradiography detection using XAR-5 X-ray films (Eastman Kodak, Rochester, N.Y.) as previously described (Hansson et al., 1985).

H. pylori CCUG 17874 = assay: as above; parameters: species or system Helicobacter pylori; key: An significant darkening on the autoradiogram when 2 μg of the glycosphingolipid was applied on the thin-layer plate is denoted by +; − denotes no binding; conditions: 2 μg (40 μg for the glycosphingolipid fraction) on TLC plates
Text: as §1, §2, §3

H. felis CCUG 28539 = assay: as above; parameters: species or system Helicobacter felis; key: An significant darkening on the autoradiogram when 2 μg of the glycosphingolipid was applied on the thin-layer plate is denoted by +; − denotes no binding; conditions: 2 μg (40 μg for the glycosphingolipid fraction) on TLC plates
Text: as §1, §2, §3

H. canis CCUG 33835 = assay: as above; parameters: species or system Helicobacter canis; key: An significant darkening on the autoradiogram when 2 μg of the glycosphingolipid was applied on the thin-layer plate is denoted by +; − denotes no binding; conditions: 2 μg (40 μg for the glycosphingolipid fraction) on TLC plates
Text: as §1, §2, §3

H. hepaticus CCUG 33637 = assay: as above; parameters: species or system Helicobacter hepaticus; key: An significant darkening on the autoradiogram when 2 μg of the glycosphingolipid was applied on the thin-layer plate is denoted by +; − denotes no binding; conditions: 2 μg (40 μg for the glycosphingolipid fraction) on TLC plates
Text: as §1, §2, §3

H. mustelae 25715 = assay: as above; parameters: species or system Helicobacter mustelae; key: An significant darkening on the autoradiogram when 2 μg of the glycosphingolipid was applied on the thin-layer plate is denoted by +; − denotes no binding; conditions: 2 μg (40 μg for the glycosphingolipid fraction) on TLC plates
Text: as §1, §2, §3

[3] = tested on: H. mustelae CCUG 23950 & 23951; assay: as above; parameters: species or system Helicobacter mustelae; key: An significant darkening on the autoradiogram when 2 μg of the glycosphingolipid was applied on the thin-layer plate is denoted by +; − denotes no binding; conditions: 2 μg (40 μg for the glycosphingolipid fraction) on TLC plates
Text: as §1, §2, §3

H. bilis CCUG 38995 = assay: as above; parameters: species or system Helicobacter bilis; key: An significant darkening on the autoradiogram when 2 μg of the glycosphingolipid was applied on the thin-layer plate is denoted by +; − denotes no binding; conditions: 2 μg (40 μg for the glycosphingolipid fraction) on TLC plates
Text: as §1, §2, §3

H. pylori CCUG 17875 [4] = assay: as above; parameters: species or system Helicobacter pylori; key: An significant darkening on the autoradiogram when 2 μg of the glycosphingolipid was applied on the thin-layer plate is denoted by +; − denotes no binding; conditions: 2 μg (40 μg for the glycosphingolipid fraction) on TLC plates
Text: as §1, §2, §3

EPEC = conditions: 100 mM; cited from earlier work
Helicobacter pylori [5] = conditions: cited from earlier work
Helicobacter pylori [6] = conditions: in vivo; cited from earlier work
E. coli EIEC CCUG 38092 = assay: Chromatogram binding assay, binding specificities of type strains; parameters: species or system Escherichia coli; conditions: prolonged sub-culture, 4 μg per lane
Procedure: Culture Conditions and Labeling—The E. coli strains were cultured on Luria-agar with the addition of 10 μl ^35S-methionine (400 tici; Amersham Pharmacia Biotech, U.K.) at 37° C. for 12 h. The bacteria were harvested by scraping, washed three times with phosphate-buffered saline (PBS), pH 7.3, and thereafter resuspended in PBS (with or without 1% mannose (w/v)) to 1×10^8 CFU/ml. The specific activities of the suspensions were approximately 1 cpm per 100 bacteria.
Thin-Layer Chromatography—Thin-layer chromatography of glycosphingolipids was performed on glass- or aluminum-backed silica gel 60 HPTLC plates (Merck, Darmstadt, Germany), using chloroform/methanol/water 60:35:8 (by volume) as solvent system. Chemical detection was done with anisaldehyde (6).
(§4) Glycosphingolipid Binding Assays—Binding of ^35S-labeled bacteria to glycosphingolipids on thin-layer chromatograms was done as reported (7). Dried chromatograms were dipped for 1 min in diethylether/n-hexane (1:5, by volume) containing 0.5% (w/v) polyisobutylmethacrylate (Aldrich Chem. Comp. Inc., Milwaukee, Wis.). After drying, the chromatograms were soaked in PBS containing 2% bovine serum albumin (w/v), 0.1% NaN3 (w/v) and 0.1% Tween 20 (by volume) for 2 h at room temperature. The chromatograms were subsequentely covered with radiolabeled bacteria diluted in PBS (2-5×10^6 cpm/ml). Incubation was done for 2 h at room temperature, followed by repeated washings with PBS. The chromatograms were thereafter autoradiographed using XAR-5 X-ray films (Eastman Kodak, Rochester, N.Y.) for 12 h. Autoradiograms were replicated using a CCD camera (Dage-MTI, Inc., Michigan City, Ind.), and analysis of the images was performed using the public domain NIH Image program (developed at the U.S. National Institutes of Health, and available at http://rsb.info.nih.eov/nih-imaee/).
However, several wild type diarrheagenic E. coli strains bind to sialic acid (see e.g. FIG. 6 and FIG. 3). […]

EPEC strain = conditions: listed in decreasing order of activity; cited from earlier work
diarrheagenic E. coli = assay: Inhibition with soluble oligosaccharides in the chromatogram binding assay; parameters: species or system Escherichia coli
Procedure: as §4
The final concentrations of the inhibiting oligosaccharides on the TLC-plate were 0.3 mM. […] Thereafter the chromatogram binding assay was performed as described above.

[7] = tested on: shiga toxina and shigalike toxin; conditions: cited from earlier work
[8] = tested on: enteropathogenic wild type E. coli strain 37; assay: Inhibition with soluble oligosaccharides in the chromatogram binding assay; parameters: species or system Escherichia coli
Procedure: FIG. 5. […] Radiolabeled wild type E. coli strain 37 was incubated with a mixture of globotriaose (1.5 mM), neolactotetraose (1.5 mM) and 6′sialyllactose (1.5 mM) in PBS for 1 h at room temperature. Thereafter the suspensions were utilized in the chromatogram binding assay. (A) Binding of radiolabeled E. coli strain 37. (B) Binding of E. coli strain 37 incubated with a mixture of globotriaose, neolactotetraose and 6′sialyllactose. Lanes 1-4 were serial dilutions of globotriaosylceramide (Galα4Galβ4Glc β1Cer) and NeuGc-neolactohexaosylceramide (NeuGcα3Galβ4GlcNAcβ3Gaβ4GlcNacβ3Galβ4Glcβ1Cer). Lane 1, 2 μg of each compound, lane 2, 1 μg of each compound, lane 3, 0.5 μg of each compound, lane 4, 0.2 μg of each compound. Lanes 5-8 were serial dilutions of NeuGc-neolactotetraosylceramide (NeuGcα3Galβ4GlcNAcβ3Galβ4Glcβ1Cer). Lane 5, 2 μg of each compound, lane 6, 1 μg of each compound, lane 7, 0.5 μg of each compound, lane 8, 0.2 μg of each compound. The glycosphingolipids were separated on aluminium-packed silica gel plates, using chloroform/methanol/water (60:35:8, by volume) as solvent system, and the binding assay was performed as described under “Experimental procedures”. Autoradiography was for 12 h.
(C) Binding curves obtained after quantification of binding by densitometry. The autoradiograms in (A) and (B) were analyzed using the NIH Image program. […]

| Compound | Binding of glycosphingolipids to H.pylori 17874 (H. pylori CCUG 17874) | Binding of glycosphingolipids to H.felis 28539 (H. felis CCUG 28539) | Binding of glycosphingolipids to H.canis 33835 (H. canis CCUG 33835) | Binding of glycosphingolipids to H.hepaticus 33637 (H. hepaticus CCUG 33637) | Binding of glycosphingolipids to H.mustelae 25715 (H. mustelae 25715) | Binding of glycosphingolipids to H.mustelae 23950 & 23951 [3] | Binding of glycosphingolipids to H.bilis 38995 (H. bilis CCUG 38995) | also measured |
| --- | --- | --- | --- | --- | --- | --- | --- | --- |
| Fucα2Galβ3(Fucα4)GlcNAcβ3Galβ4Glcβ1Cer [No. 25] | − | − | − | − | − | − | − | Binding of H. pylori CCUG 17875 to glycosphingolipid, in words (H. pylori CCUG 17875 [1]): only observed for H. pylori CCUG 17875; Binding of glycosphingolipids to H.pylori 17875 (H. pylori CCUG 17875 [2]): + |
| Galβ3(Fucα4)GlcNAcβ3Galβ4Glcβ1Cer [No. 24] | − | − | − | − | − | − | − | Binding of glycosphingolipids to H.pylori 17875 (H. pylori CCUG 17875 [4]): − |
| CC(=O)N[C@H]1C(O)O[C@H](CO)[C@H](O)[C@@H]1O (stereo partly shown) [N-acetylgalactosamine] |  |  |  |  |  |  |  | Inhibition of EPEC binding to HeLa cells (EPEC): inhibited |
| CC(=O)N[C@H]1[C@H]([C@H](O)[C@H](O)CO)O[C@@](O[C@H]2[C@@H](O)[C@@H](CO)O[C@@H](O[C@H]3[C@H](O)[C@@H](O)C(O)O[C@@H]3CO)[C@@H]2O)(C(=O)O)C[C@@H]1O (stereo partly shown) [sialyl-lactose] |  |  |  |  |  |  |  | Inhibition of Helicobacter pylori binding to human gastrointestinal cell lines (Helicobacter pylori [5]): inhibits; Efficacy in a rhesus monkey animal model of the infection (Helicobacter pylori [6]): effective |
| GalNAcβ3Galα4Galβ4Glcβ1Cer [No. 12] | − | − | − | − | − | − | − | Binding of E. coli CCUG 38092 to pure glycosphingolipids after sub-culture (E. coli EIEC CCUG 38092): remain; Binding of an EPEC strain to commercial glycolipids (EPEC strain): observed to bind; Binding of glycosphingolipids to H.pylori 17875 (H. pylori CCUG 17875 [4]): − |
| OC[C@H]1O[C@H](O[C@@H]2[C@H](O)[C@@H](O)[C@H](O[C@H]3[C@H](O)[C@@H](O)C(O)O[C@@H]3CO)O[C@@H]2CO)[C@H](O)[C@@H](O)[C@H]1O (stereo partly shown) [globotriaose, Galα4Galβ4Glc] |  |  |  |  |  |  |  | Inhibition of non-toxigenic diarrhea causing E. coli by monovalent oligosaccharide (diarrheagenic E. coli; concentration of 0.3 mM): effect is seen; Inhibition of binding to globotriaosylceramide (diarrheagenic E. coli; preincubation 1.5 mM, final concentration 0.3 mM): Inhibition of binding; Inhibition of toxin with monovalent inhibitor [7]: Minor effects |
| CC(=O)NC1C(O)CC(OCC2OC(OC3C(CO)OC(O)C(O)C3O)C(O)C(O)C2O)(C(=O)O)OC1C(O)C(O)CO (stereo not shown) [6′sialyllactose, NeuNAcα6Galβ4Glc] |  |  |  |  |  |  |  | Inhibition of binding to NeuGcα3-neolactotetraosylceramide [8]: inhibited |
